Like-named read-outs stand apart in the source and are kept apart here.
Legend:
NDM-1 = NDM-1 (Klebsiella pneumoniae, UniProt C7C422); experiment: biochemical; assay type: biochemical; details: read-out: NDM-1 IC50
VIM-1 = VIM-1 (Pseudomonas aeruginosa (strain ATCC 15692 / DSM 22644 / CIP 104116 / JCM 14847 / LMG 12228 / 1C / PRS 101 / PAO1), UniProt A0A0F7KYQ8); experiment: Enzyme activity: determination of IC50, fluorescence assay with CCF2-FA substrate (VIM-1); assay type: biochemical
[1] = tested on: Serratia marcescens expressing IMP-1 (CL5741); experiment: Antibiotic potentiation activity: synergistic concentration (MITC95) with imipenem, OD600 growth; assay type: cell-based; details: for Serratia marcescens expressing IMP-1 (CL5741) MITC95: concentration giving 95% inhibition of bacterial growth
Outline: (§1)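 Absorbance after a 22–24 h, 35 °C incubation served as the read-out. Wells held bacteria (saline suspension diluted 1:100 into 1.1× CAMHB), imipenem at 4 μg/ml final or optionally 1 μg/ml, and test compound.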

[2] = tested on: Klebsiella pneumoniae expressing VIM-1 (IHMA599644); experiment: as above; assay type: cell-based; details: for Klebsiella pneumoniae expressing VIM-1 (IHMA 599644) MITC95: concentration giving 95% inhibition of bacterial growth
Outline: as §1

[3] = tested on: Escherichia coli expressing NDM-1 (CLB30016); experiment: as above; assay type: cell-based; details: for Escherichia coli expressing NDM-1 (CLB 30016) MITC95: concentration giving 95% inhibition of bacterial growth
Outline: as §1

IMP-1 = IMP-1 (Serratia marcescens, UniProt P52699); experiment: biochemical; assay type: biochemical; details: read-out: IMP-1 IC50
[4] = NDM-1 enzyme, CCF2-FA fluorescence assay
[5] = VIM-1 enzyme, CCF2-FA fluorescence assay, read-out: VIM-1 IC50
[6] = Serratia marcescens expressing IMP-1 (CL5741), 95% growth inhibition
[7] = Klebsiella pneumoniae expressing VIM-1 (IHMA599644), 95% growth inhibition
[8] = Escherichia coli expressing NDM-1 (CLB30016), 95% growth inhibition
[9] = IMP-1 enzyme, CCF2-FA fluorescence assay
[10] = NDM-1 enzyme, CCF2-FA substrate
[11] = VIM-1 enzyme, CCF2-FA substrate, read-out: VIM-1 IC50
[12] = Serratia marcescens CL5741 (IMP-1), 95% growth inhibition
[13] = Klebsiella pneumoniae IHMA599644 (VIM-1), 95% growth inhibition
[14] = (CLB30016, NDM-1), 95% growth inhibition
[15] = IMP-1 enzyme, CCF2-FA substrate
[16] = fluorescence assay with CCF2-FA substrate
[17] = fluorescence assay with CCF2-FA substrate, read-out: VIM-1 IC50
[18] = CL5741 (IMP-1), 95% inhibition of bacterial growth
[19] = IHMA599644 (VIM-1), 95% inhibition of bacterial growth
[20] = CLB30016 (NDM-1), 95% inhibition of bacterial growth

Sequence of IMP-1 (P52699 whole entry, looked up): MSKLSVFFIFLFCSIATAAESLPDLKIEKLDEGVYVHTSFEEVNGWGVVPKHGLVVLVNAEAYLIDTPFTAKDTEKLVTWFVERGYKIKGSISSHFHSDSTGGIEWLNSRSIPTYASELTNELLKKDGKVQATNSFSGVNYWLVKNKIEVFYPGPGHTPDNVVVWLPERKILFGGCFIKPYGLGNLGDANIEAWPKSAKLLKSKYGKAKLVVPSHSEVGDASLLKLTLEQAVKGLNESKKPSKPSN
Sequence of NDM-1 (C7C422 whole entry, looked up, species assumed): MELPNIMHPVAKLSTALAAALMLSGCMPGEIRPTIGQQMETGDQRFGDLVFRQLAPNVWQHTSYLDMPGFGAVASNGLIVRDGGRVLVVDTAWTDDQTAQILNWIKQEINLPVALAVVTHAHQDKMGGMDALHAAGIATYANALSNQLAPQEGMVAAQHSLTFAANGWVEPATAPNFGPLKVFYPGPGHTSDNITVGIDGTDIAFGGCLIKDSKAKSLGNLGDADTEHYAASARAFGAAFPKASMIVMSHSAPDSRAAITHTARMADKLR

| Compound | IC50 (NDM-1; [4]) | IC50 (VIM-1; [5]) | Serratia marcescens MITC95 [1, 6] | Klebsiella pneumoniae MITC95 [2, 7] | Escherichia coli MITC95 [3, 8] | IC50 (IMP-1; [9]) | IC50 (NDM-1; [10]) | Serratia marcescens MITC95 [1, 12] | Klebsiella pneumoniae MITC95 [2, 13] | Escherichia coli MITC95 [3, 14] | IC50 (IMP-1; [15]) | IC50 (NDM-1; [16]) | IC50 (VIM-1; [17]) | IC50 (IMP-1; [16]) | further results |
| --- | --- | --- | --- | --- | --- | --- | --- | --- | --- | --- | --- | --- | --- | --- | --- |
| NS(=O)(=O)c1cccc(-c2ccc(CNC3CCN(C4CCCC4)CC3)cc2)c1-c1nnn[nH]1 [Example 379, 4′-{[(1-cyclopentylpiperidin-4-yl)amino]methyl}-2-(1H-tetrazol-5-yl)biphenyl-3-sulfonamide] | 27.3 nM | 639 nM | 4.688 µM | 200 µM | 1.563 µM | 318 nM | – | – | – | – | – | – | – | – | – |
| CN1CCN(Cc2ccc(-c3cccc(S(N)(=O)=O)c3-c3nnn[nH]3)cc2)CC1 [Example 329, 4′-((4-methylpiperazin-1-yl)methyl)-2-(1H-tetrazol-5-yl)-[1,1′-biphenyl]-3-sulfonamide] | 8.26 nM | 683 nM | 1.563 µM | 200 µM | 0.7813 µM | 87.1 nM | – | – | – | – | – | – | – | – | – |
| NS(=O)(=O)c1c(CCCCCO)ccc(CCCCCO)c1-c1nn[nH]n1 [Example 542, 3,6-Bis(5-hydroxypentyl)-2-(2H-tetrazol-5-yl)benzenesulfonamide] | – | – | – | – | – | – | 11.5 nM | 6.25 µM | 100 µM | 25 µM | 7.9 nM | – | – | – | IC50 (VIM-1; [11]): 6.43 nM |
| NS(=O)(=O)c1nccc(NCCC2CCCCC2)c1-c1nnn[nH]1 [Example 236, 4-[(2-cyclohexylethyl)amino]-3-(1H-tetrazol-5-yl)pyridine-2-sulfonamide] | – | – | – | – | – | – | – | – | – | – | – | 38.6 nM | 188 nM | 223 nM | Serratia marcescens expressing IMP-1 (CL5741) MITC95 [1]: 25 µM; Klebsiella pneumoniae expressing VIM-1 (IHMA 599644) MITC95 [2]: >200 µM; Escherichia coli expressing NDM-1 (CLB 30016) MITC95 [3]: 18.75 µM |
| CC(C)[C@@H](N)CN1CCC(c2ccc(-c3cccc(S(N)(=O)=O)c3-c3nnn[nH]3)cc2)CC1 [Example 614, 3-[4-[1-[(2R)-2-amino-3-methyl-butyl]-4-piperidyl]phenyl]-2-(1H-tetrazol-5-yl)benzenesulfonamide] | – | – | – | – | – | – | 5.89 nM | 1.563 µM | >200 µM | 1.172 µM | 11.6 nM | – | – | – | IC50 (VIM-1; [11]): 505 nM |
| N=CN1CCC(N)(c2ccc(-c3ccc(C(F)(F)F)c(S(N)(=O)=O)c3-c3nn[nH]n3)cc2)CC1 [Example 437, 4′-(4-amino-1-(iminomethyl)piperidin-4-yl)-2-(2H-tetrazol-5-yl)-4-(trifluoromethyl)-[1,1′-biphenyl]-3-sulfonamide] | 7.95 nM | 8 nM | 0.3906 µM | 3.125 µM | 0.3906 µM | 7.82 nM | – | – | – | – | – | – | – | – | – |
| NS(=O)(=O)c1cccc(-c2ccc(-n3cccn3)nc2)c1-c1nnn[nH]1 [Example 117, 3-(6-(1H-pyrazol-1-yl)pyridin-3-yl)-2-(1H-tetrazol-5-yl)benzenesulfonamide] | – | – | – | – | – | – | – | – | – | – | – | 5.18 nM | 135 nM | 134 nM | Serratia marcescens expressing IMP-1 (CL5741) MITC95 [1]: 6.25 µM; Klebsiella pneumoniae expressing VIM-1 (IHMA 599644) MITC95 [2]: 100 µM; Escherichia coli expressing NDM-1 (CLB 30016) MITC95 [3]: 1.172 µM |
| CC(O)C1CCN(c2ccnc(S(N)(=O)=O)c2-c2nnn[nH]2)CC1 (stereo not drawn) [Example 244, 4-[4-(1-hydroxyethyl)piperidin-1-yl]-3-(1H-tetrazol-5-yl)pyridine-2-sulfonamide] | 51.2 nM | 125 nM | 18.75 µM | 37.5 µM | 1.563 µM | 682 nM | – | – | – | – | – | – | – | – | – |
| NS(=O)(=O)c1c(C(F)(F)F)ccc(-c2ccc(C3CCN(C4CCNCC4)CC3)cc2)c1-c1nnn[nH]1 [Example 785, 4′-(1,4′-bipiperidin-4-yl)-2-(1H-tetrazol-5-yl)-4-(trifluoromethyl)biphenyl-3-sulfonamide] | – | – | – | – | – | – | – | – | – | – | – | 4.21 nM | 12.2 nM | 1.09 nM | Serratia marcescens MITC95 [1, 18]: 3.125 µM; Klebsiella pneumoniae MITC95 [2, 19]: 25 µM; Escherichia coli MITC95 [3, 20]: 1.563 µM |
| NS(=O)(=O)c1c(CC[C@H]2CC[C@@H](N)CC2)ccc(-c2ccc(C3CCNC3)cc2)c1-c1nnn[nH]1 (stereo partly drawn) [Example 585, 4-(2-((1s,4r)-4-aminocyclohexyl)ethyl)-4′-(pyrrolidin-3-yl)-2-(1H-tetrazol-5-yl)-[1,1′-biphenyl]-3-sulfonamide] | – | – | – | – | – | – | 2.2 nM | 3.125 µM | 6.25 µM | 0.7813 µM | 17 nM | – | – | – | IC50 (VIM-1; [11]): 4.58 nM |
| Nc1nccc(-c2cccc(-c3ccc(C(F)(F)F)c(S(N)(=O)=O)c3-c3nnn[nH]3)c2)n1 [Example 753, 3′-(2-aminopyrimidin-4-yl)-2-(1H-tetrazol-5-yl)-4-(trifluoromethyl)biphenyl-3-sulfonamdie] | – | – | – | – | – | – | – | – | – | – | – | 1.01 nM | 0.754 nM | 2.02 nM | Serratia marcescens MITC95 [1, 18]: 12.5 µM; Klebsiella pneumoniae MITC95 [2, 19]: 100 µM; Escherichia coli MITC95 [3, 20]: 12.5 µM |
| NS(=O)(=O)c1c(C(F)(F)F)ccc(-c2ccc(C3CCN(C[C@H]4CNCCO4)CC3)cc2)c1-c1nnn[nH]1 [Example 670, 4′-{1-[(2R)-morpholin-2-ylmethyl]piperidin-4-yl}-2-(1H-tetrazol-5-yl)-4-(trifluoromethyl)biphenyl-3-sulfonamide] | – | – | – | – | – | – | 4.11 nM | 3.125 µM | 25 µM | 1.563 µM | 1.08 nM | – | – | – | IC50 (VIM-1; [11]): 3.53 nM |
| NS(=O)(=O)c1c(C(F)(F)F)ccc(N2CCC(CCO)CC2)c1-c1nnn[nH]1 [Example 661, 3-[4-(2-hydroxyethyl)piperidin-1-yl]-2-(1H-tetrazol-5-yl)-6-(trifluoromethyl)benzenesulfonamide] | – | – | – | – | – | – | 1.01 nM | 0.0625 µM | 2.75 µM | 2.703 µM | 0.965 nM | – | – | – | IC50 (VIM-1; [11]): 0.22 nM |
| NS(=O)(=O)c1c(C(F)(F)F)ccc(-c2cccn3ncnc23)c1-c1nnn[nH]1 [Example 840, 3-([1,2,4]triazolo[1,5-a]pyridin-8-yl)-2-(1H-tetrazol-5-yl)-6-(trifluoromethyl)benzenesulfonamide] | – | – | – | – | – | – | – | – | – | – | – | 2.49 nM | 0.46 nM | 14.1 nM | Serratia marcescens MITC95 [1, 18]: 12.5 µM; Klebsiella pneumoniae MITC95 [2, 19]: 6.25 µM; Escherichia coli MITC95 [3, 20]: 3.125 µM |
| NS(=O)(=O)c1c(CC[C@H]2CC[C@@H](N)CC2)ccc(-c2ccc(C3CNC3)cc2)c1-c1nnn[nH]1 [Example 600, 4-(2-((1s,4r)-4-aminocyclohexyl)ethyl)-4′-(azetidin-3-yl)-2-(1H-tetrazol-5-yl)-[1,1′-biphenyl]-3-sulfonamide] | – | – | – | – | – | – | 2.56 nM | 6.25 µM | 3.125 µM | 1.563 µM | 43.8 nM | – | – | – | IC50 (VIM-1; VIM-1 IC50, VIM-1 enzyme, CCF2-FA substrate): 0.861 nM |
| CC(C)(C)Cc1cccc(S(N)(=O)=O)c1-c1nnn[nH]1 [Example 159, 3-neopentyl-2-(1H-tetrazol-5-yl)benzenesulfonamide] | – | – | – | – | – | – | – | – | – | – | – | 34 nM | 3390 nM | 526 nM | Serratia marcescens expressing IMP-1 (CL5741) MITC95 [1]: 18.75 µM; Klebsiella pneumoniae expressing VIM-1 (IHMA 599644) MITC95 [2]: >200 µM; Escherichia coli expressing NDM-1 (CLB 30016) MITC95 [3]: 3.125 µM |
| NS(=O)(=O)c1cccc(-c2ccc(OC3CCNCC3)cc2)c1-c1nnn[nH]1 [Example 316, 4′-(piperidin-4-yloxy)-2-(1H-tetrazol-5-yl)-[1,1′-biphenyl]-3-sulfonamide] | 5.11 nM | 67.7 nM | 2.344 µM | 12.5 µM | 0.9766 µM | 69.3 nM | – | – | – | – | – | – | – | – | – |
| NS(=O)(=O)c1cccc(-c2ccc(CNC(CO)CO)cc2)c1-c1nnn[nH]1 [Example 374, 4′-({[2-hydroxy-1-(hydroxymethyl)ethyl]amino}methyl)-2-(1H-tetrazol-5-yl)biphenyl-3-sulfonamide] | 16 nM | 277 nM | 3.125 µM | 37.5 µM | 0.7813 µM | 264 nM | – | – | – | – | – | – | – | – | – |
| NS(=O)(=O)c1cccc(-c2ccc(CN3CCOCC3)cc2)c1-c1nnn[nH]1 [Example 341, 4′-(morpholin-4-ylmethyl)-2-(1H-tetrazol-5-yl)biphenyl-3-sulfonamide] | 2.94 nM | 786 nM | 1.172 µM | >200 µM | 0.7813 µM | 22.1 nM | – | – | – | – | – | – | – | – | – |

From patent publication US9708336B2, “Metallo-beta-lactamase inhibitors” (priority 2014, dated 2017)
